The test system of the data set is human intestinal microsomes. In words: Stability of simvastatin in human intestinal microsomes (first intestinal passage effect). Particulars: 1 mg/ml microsomes, 37° C., 12 μmol. As for the experimental part:
The test is carried out in vitro using human intestinal microsomes containing:
0.09 nmol/mg of cytochromes P450,
0.77 nmol/min/mg of cytochromes P450 3 A 4.
1 mg/ml of microsomes is then placed in contact:
with a regenerating system having the following composition:
followed by equilibration at 37° C. for 3 minutes.
100 μl aliquots are mixed with a solution of 400 μl of a 50/50 mixture of ice and acetonitrile at 0, 15, 30, 60, 120 and 180 minutes. Testosterone is tested in parallel as control component.
The conditions for carrying out the HPLC are as follows:
The mass spectrometer used is known under the reference PE SCIEX 150.

Molecules are shown by their SMILES.

For one compound, Percentage remaining results are on record in patent US20040146538A1, “Pharmaceutical composition for oral use comprising an active principle liable to undergo a large first intestinal passage effect” (Gattefosse Holding, priority 2001, published 2004).

As for `C[C@]12CC[C@H]3[C@@H](CCC4=CC(=O)CC[C@@]43C)[C@@H]1CC[C@@H]2O` [TESTOSTERONE, Testosterone], the Percentage remaining is, setting by setting: (simvastatin (or testosterone control) remaining, time 0 min) 100%; (time 15 min) “completely disappeared”; (time 180 min) 0%.
